Laboratory results reported in US9120779B2, “Inhibitors of HCV NS5A” (PRESIDIO PHARMACEUTICALS, INC., priority 2008, dated 2015).
Like-named read-outs stand apart in the source and are kept apart here.

System: HCV genotype 1b replicon in Huh 7 cells
Experiment: HCV replicon assay (luciferase readout, 1b_Huh-Luc/Neo-ET cell line)
Type: cell-based
Conditions: Hepatitis C virus, Huh-7, 72 h
Experimental: Biological activity of the compounds of the invention was determined using an HCV replicon assay. The 1b_Huh-Luc/Neo-ET cell line persistently expressing a bicistronic genotype 1b replicon in Huh 7 cells was obtained from R^eBLikon GMBH. This cell line was used to test compound inhibition using luciferase enzyme activity readout as a measurement of compound inhibition of replicon levels.
On Day 1 (the day after plating), each compound is added in triplicate to the cells. Plates incubated for 72 h prior to running the luciferase assay. Enzyme activity was measured using a Bright-Glo Kit (cat. number E2620) manufactured by Promega Corporation. The following equation was used to generate a percent control value for each compound. % Control=(Average Compound Value/Average Control)*100
The EC50 value was determined using GraphPad Prism and the following equation: Y=Bottom+(Top−Bottom)/(1+10^((Log IC50−X)*HillSlope))
EC50 values of compounds are repeated several times in the replicon assay.
Example compounds of the disclosed invention are illustrated in Tables 1-9 attached as appendices. The tables show inhibitory activity of many of the example compounds with respect to HCV 1b. […] The tables further provide mass spectrometry results for the synthesized example compounds.

[1] = read-out: Inhibition of HCV genotype 1b, Table 5, 72 h incubation
[2] = read-out: Inhibition of HCV genotype 1b, Table 3, 72 h incubation
[3] = read-out: Inhibition of HCV genotype 1b, Table 4, 72 h incubation
[4] = read-out: Inhibition of HCV genotype 1b, Table 1, 72 h incubation

CC(C)[C@H](NC(=O)N1CCOCC1)C(=O)N1CCC[C@H]1c1ncc(-c2ccc(C34CCC(c5cnc([C@@H]6CCCN6C(=O)[C@@H](NC(=O)N6CCOCC6)C(C)C)[nH]5)(CC3)CC4)cc2)[nH]1 [compound 628] showed an EC50 [1] greater than 1000 nM.

COC(=O)N[C@H](C(=O)N1CCC[C@H]1c1ncc(C23CCC(c4ccc(-c5cnc([C@@H]6CCCN6C(=O)[C@@H](c6ccccc6)N(C)C)[nH]5)cc4)(CC2)CC3)[nH]1)C(C)C [compound 2067] gave an EC50 [1] of less than 1 nM.

In the case of COC(=O)N[C@H](C(=O)N1CCC[C@H]1c1ncc(-c2ccc(C34CCC(c5cnc([C@@H]6CCCN6C(=O)[C@@H](C(C)C)N(C)C)[nH]5)(CC3)CC4)cc2)[nH]1)C(C)C [compound 2057], the EC50 [1] is reported as less than 1 nM.

CCNC(=O)N[C@@H](C(=O)N1CCC[C@H]1c1ncc(-c2ccc(C34CCC(c5cnc([C@@H]6CCCN6C(=O)[C@@H](NC(=O)OC)C(C)C)[nH]5)(CC3)CC4)cc2)[nH]1)c1ccccc1 [compound 2103] gave an EC50 [1] of less than 1 nM.

For COC(=O)N[C@H](C(=O)N1CCC[C@H]1c1ncc(C23CCC(c4ccc(-c5cnc([C@@H]6CCCN6C(=O)[C@H](NC6CCOCC6)c6ccccc6)[nH]5)cc4)(CC2)CC3)[nH]1)C(C)C [compound 2068], the EC50 [1] was less than 1 nM.

Work on O=C(N[C@@H](C(=O)N1CCOC[C@H]1c1ncc(-c2cc(F)c(N3CCC(c4cnc([C@@H]5CCCN5C(=O)[C@H](NC(=O)C5CC5)c5ccccc5)[nH]4)CC3)c(F)c2)[nH]1)c1ccccc1)C1CC1 [compound 510] yielded an EC50 [2] of less than 1 nM.

In the case of O=C(N[C@@H](C(=O)N1CCC[C@H]1CNC(=O)C12CCC(c3ccc(-c4cnc([C@@H]5CCCN5C(=O)[C@H](NC(=O)C5CC5)c5ccccc5)[nH]4)cc3)(CC1)CC2)c1ccccc1)C1CC1 [compound 602], the EC50 [1] is reported as less than 1 nM.

For COC(=O)N[C@@H](C(=O)N1CCC[C@H]1c1ncc(-c2cc(F)c(N3CCC(c4cnc([C@@H]5CCCCN5C(=O)[C@@H](c5ccccc5)N5CCCCC5)[nH]4)CC3)c(F)c2)[nH]1)c1ccccc1 [compound 496], the EC50 [2] was less than 1 nM.

For CC(C)[C@H](NC(=O)N1CCCC1)C(=O)N1CCC[C@H]1c1nc2ccc(-c3ccc(-c4ccc5nc([C@@H]6CCCN6C(=O)[C@@H](NC(=O)N6CCCC6)C(C)C)[nH]c5c4)cc3)cc2[nH]1 [compound 552], the EC50 [3] was greater than 1000 nM.

CC(C)[C@H](NC(=O)N1CC[C@H](O)C1)C(=O)N1CCC[C@H]1c1nc2ccc(-c3ccc(-c4ccc5nc([C@@H]6CCCN6C(=O)[C@@H](NC(=O)N6CC[C@H](O)C6)C(C)C)[nH]c5c4)cc3)cc2[nH]1 [compound 553] gave an EC50 [3] greater than 1000 nM.

With COC(=O)N[C@H](C(=O)N1CCC[C@H]1c1ncc(-c2ccc(C34CCC(c5cnc([C@@H]6CCCN6C(=O)[C@H](NC(=O)C6CC6)c6ccccc6)[nH]5)(CC3)CC4)cc2)[nH]1)C(C)C [compound 631] the EC50 [1] was less than 1 nM.

Work on COC(=O)N[C@@H](C(=O)N1CCC[C@H]1c1ncc(C23CCC(c4ccc(-c5cnc([C@@H]6CCCN6C(=O)[C@H](NC(=O)OC)C(C)C)[nH]5)cc4)(CC2)CC3)[nH]1)c1ccccc1 [compound 621] yielded an EC50 [1] of less than 1 nM.

With COC(=O)N[C@H](C(=O)N1CCC[C@H]1c1ncc(-c2cc(F)c(N3CCC(c4cnc([C@@H]5CCCCN5C(=O)[C@@H](NC(=O)OC)C(C)C)[nH]4)CC3)c(F)c2)[nH]1)C(C)C [compound 503] the EC50 [2] was less than 1 nM.

O=C(N[C@@H](C(=O)N1CCC[C@H]1c1ncc(-c2ccc(C34CCC(c5cnc([C@@H]6CCCN6C(=O)[C@H](NC(=O)C6CC6)c6ccccc6)[nH]5)(CC3)CC4)cc2)[nH]1)c1ccccc1)C1CC1 [compound 607] was tested, and the EC50 [1] was less than 1 nM.

With COC(=O)N[C@@H](C(=O)N1CCC[C@H]1c1ncc(-c2ccc(N3CCC(c4cnc([C@@H]5CCCN5C(=O)[C@H](NC(=O)OC)c5ccccc5)[nH]4)CC3)c(F)c2)[nH]1)c1ccccc1 [compound 452] the EC50 [2] was less than 1 nM.

With CCC(CC)[C@H](NC(=O)OC)C(=O)N1CCC[C@H]1c1ncc(-c2ccc(C34CCC(c5cnc([C@@H]6CCCN6C(=O)[C@@H](NC(=O)OC)C(CC)CC)[nH]5)(CC3)CC4)cc2)[nH]1 [compound 910] the EC50 [1] was less than 1 nM.

Compound CCNC(=O)N[C@H](C(=O)N1CCC[C@H]1c1ncc(C23CCC(c4ccc(-c5cnc([C@@H]6CCCN6C(=O)[C@@H](NC(=O)OC)C(C)C)[nH]5)cc4)(CC2)CC3)[nH]1)C(C)C [compound 2100] has an EC50 [1] of less than 1 nM.

Compound COC(=O)N[C@H](C(=O)N1CCC[C@H]1c1ncc(C2CCN(c3c(F)cc(-c4cnc([C@@H]5CCCN5C(=O)[C@H](NC(=O)OC)c5ccccc5)[nH]4)cc3F)CC2)[nH]1)[C@@H](C)OC [compound 466] has an EC50 [2] of less than 1 nM.

COC(=O)N[C@H](C(=O)N1CCC[C@H]1c1ncc(C23CCC(c4ccc(-c5cnc([C@@H]6CCCN6C(=O)[C@@H](NC6CCOCC6)C(C)C)[nH]5)cc4)(CC2)CC3)[nH]1)C(C)C [compound 914] gave an EC50 [1] of 10 to 999 nM.

COC(=O)N[C@H](C(=O)N1CCC[C@H]1c1nc2ccc(-c3ccc(-c4ccc5nc([C@@H]6CCCN6C(=O)[C@@H](NC(=O)OC)C(C)C)[nH]c5c4)nc3)cc2[nH]1)C(C)C [compound 556] gave an EC50 [3] of less than 1 nM.

COC(=O)N[C@H](C(=O)N1CCC[C@H]1c1ncc(-c2ccc([C@H]3CC[C@H](c4cnc([C@@H]5CCCN5C(=O)[C@@H](NC(=O)OC)C5CC5)[nH]4)CC3)cc2)[nH]1)C1CC1 [compound 942] showed an EC50 [4] of less than 1 nM.

COC(=O)N[C@H](C(=O)N1CCC[C@H]1c1nc2ccc(-c3ccc(-c4ccc5nc([C@@H]6CCCN6C(=O)[C@@H](c6ccccc6)N(C)C)[nH]c5c4)cc3)cc2[nH]1)C(C)C [compound 2038] showed an EC50 [3] of less than 1 nM.

COC(=O)N[C@@H](CC(C)C)C(=O)N1CCC[C@H]1c1ncc(-c2ccc(C34CCC(c5cnc([C@@H]6CCCN6C(=O)[C@H](CC(C)C)NC(=O)OC)[nH]5)(CC3)CC4)cc2)[nH]1 [compound 2091] gave an EC50 [1] of less than 1 nM.

In the case of COC(=O)N[C@H](C(=O)N1CCC[C@H]1c1ncc(-c2ccc([C@H]3CC[C@H](c4cnc([C@@H]5CCCN5C(=O)[C@H](NC(=O)N5CCC(O)CC5)c5ccccc5)[nH]4)CC3)cc2)[nH]1)C(C)C [compound 2003], the EC50 [4] is reported as less than 1 nM.

With O=C(N[C@@H](C(=O)N1CCC[C@H]1c1ncc(-c2cc(F)c(N3CCC(c4cnc([C@@H]5CCCN5C(=O)[C@H](NC(=O)C5CC5)c5ccccc5)[nH]4)CC3)c(F)c2)[nH]1)c1ccccc1)C1CC1 [compound 485] the EC50 [2] was less than 1 nM.

In the case of COC(=O)N[C@H](C(=O)N1CCC[C@H]1c1ncc(-c2ccc(C34CCC(c5cnc([C@H](C)NC(=O)[C@H](NC(=O)OC)c6ccccc6)[nH]5)(CC3)CC4)cc2)[nH]1)C(C)C [compound 2104], the EC50 [1] is reported as less than 1 nM.

COC(=O)N[C@@H](C(=O)N1CCC[C@H]1c1ncc(C2CCN(c3c(F)cc(-c4cnc([C@@H]5CCCN5C(=O)[C@H](NC(=O)OC(C)(C)C)c5ccccc5)[nH]4)cc3F)CC2)[nH]1)c1ccccc1 [compound 479] gave an EC50 [2] of less than 1 nM.

In the case of COC(=O)N[C@@H](C(=O)N1CCC[C@H]1c1ncc(-c2ccc(C34CCC(c5cnc([C@@H]6CCCN6C(=O)[C@H](C(C)C)N(C)C)[nH]5)(CC3)CC4)cc2)[nH]1)c1ccccc1 [compound 2063], the EC50 [1] is reported as less than 1 nM.

O=C(N[C@H]1CC[C@H](c2cccc(-c3cnc([C@@H]4CCCN4C(=O)[C@H](NC(=O)N4CCOCC4)c4ccccc4)[nH]3)c2)CC1)[C@@H]1CCCN1C(=O)[C@H](NC(=O)N1CCOCC1)c1ccccc1 [compound 364] gave an EC50 [4] of 1 to 9.9 nM.

In the case of O=C(N[C@H]1CC[C@@H](c2cccc(-c3cnc([C@@H]4CCCN4C(=O)[C@H](NC(=O)N4CCOCC4)c4ccccc4)[nH]3)c2)CC1)[C@@H]1CCCN1C(=O)[C@H](NC(=O)N1CCOCC1)c1ccccc1 [compound 365], the EC50 [4] is reported as 1 to 9.9 nM.

With O=C(N[C@@H](C(=O)N1CCC[C@H]1c1ncc(-c2ccc(N3CCC(c4cnc([C@@H]5CCCN5C(=O)[C@H](NC(=O)C5CC5)c5ccccc5)[nH]4)CC3)c(F)c2)[nH]1)c1ccccc1)C1CC1 [compound 451] the EC50 [2] was less than 1 nM.

COC(=O)N[C@@H](C(=O)N1CCC[C@H]1c1nc(-c2ccc(/C=C/c3ccc(-c4cnc([C@@H]5CCCN5C(=O)[C@H](NC(=O)OC)c5ccccc5)[nH]4)cc3)cc2)c[nH]1)c1ccccc1 [Compound 2120] gave an EC50 (read-out: Inhibition of HCV genotype 1b, Table 9, 72 h incubation) of less than 1 nM.

COC(=O)N[C@H](C(=O)N1CCC[C@H]1c1ncc(-c2ccc(C34CCC(c5cnc([C@@H]6CCCN6C(=O)[C@@H](NC(=O)OC)C6CCOCC6)[nH]5)(CC3)CC4)cc2)[nH]1)C(C)C [compound 2106] showed an EC50 [1] of less than 1 nM.

COC(=O)N[C@@H](C(=O)N1CCC[C@H]1c1ncc(-c2cc(F)c(N3CCC(C)(c4cnc([C@@H]5CCCN5C(=O)[C@H](NC(=O)OC)c5ccccc5)[nH]4)CC3)c(F)c2)[nH]1)c1ccccc1 [compound 2028] showed an EC50 [2] of less than 1 nM.

Compound COC(=O)N[C@H](C(=O)N1CCC[C@H]1c1nc2ccc(-c3ccc(-c4ccc5nc([C@@H]6CCCN6C(=O)[C@@H](NC(=O)OC)[C@@H](C)OC)[nH]c5c4)cc3)cc2[nH]1)[C@@H](C)OC [compound 555] has an EC50 [3] of less than 1 nM.

With COC(=O)N[C@H](C(=O)N1CCC[C@H]1c1ncc(-c2ccc([C@H]3CC[C@H](c4cnc([C@@H]5CCCN5C(=O)[C@H](NC(=O)NC5CCOCC5)C(C)C)[nH]4)CC3)cc2)[nH]1)C(C)C [compound 944] the EC50 [4] was less than 1 nM.

Compound COC(=O)N[C@@H](C(=O)N1CCC[C@H]1c1ncc(-c2ccc([C@H]3CC[C@](C)(c4cnc([C@@H]5CCCN5C(=O)[C@H](NC(=O)OC)c5ccccc5)[nH]4)CC3)cc2)[nH]1)c1ccccc1 [compound 2006] has an EC50 [4] of less than 1 nM.
